Laboratory results as given in patent US20040138258A1, “Inhibitors of 11beta-hydroxysteroid dehydrogenase and uses therefor” (priority 2002, published 2004).

Target: T1, rat liver 11β HSD (Rattus norvegicus, UniProt P16232)
T1 construct: for the 11β HSDs isolated from rat liver; from tissue; host or cells: rat liver
Assay: rat liver 11β HSD oxidative activity, corticosterone utilization (Lineweaver-Burk kinetics)
Assay type: biochemical
Conditions: for inhibition of the enzyme: purified rat liver 11β HSD, 1,2,6,7-3H-corticosterone; for Ki: purified rat liver 11β HSD, oxidative activity, NADP+, 1,2,6,7-3H-corticosterone, with regard to the glucocorticoid substrate, read-out: Kis; for mode of inhibition: with regard to the glucocorticoid substrate (corticosterone), Lineweaver-Burk plot, rat liver 11β HSD oxidative activity
Description: Computational analyses were performed using the latest version of MacSpartan Plus and MSI InsightII. Experimental analysis employed the rat enzyme as described (Monder et al., BBA […] (1991) and references therein). Kinetic data were analyzed in Excel and plotted in CricketGraph.
The structural similarity between GCs like cortisol and the monoterpenes with the conformation of neomenthol (FIG. 1) was confirmed by the computational analysis of their steric and electronic similarities, as summarized in FIGS. 2 and 3. Only neomenthol precisely mimicked the region of GCs around C11 that contains the oxygen atom subjected to the redox reactions mediated by the 11β HSDs. Consequently, only neomenthol should bind to such an enzyme like its physiological substrate, competing with said substrate for the active site of said enzyme. This computation-based prediction was confirmed experimentally, as shown in FIGS. 4 and 5 for the 11β HSDs isolated from rat liver. The purified rat liver 11β HSD, when used in vitro, utilizes NADP+ and oxidizes cortisol and corticosterone in an ordered sequential bireactant mechanism (Monder et al., Biochim. Biophys. Acta 1115:23-29 (1991) and references therein). […] More importantly, the results identified the conformation of neomenthol as a lead for the rational optimization of 11β HSD inhibitors, applicable to both the in vivo oxidizing activity of 11β HSD2 and the in vivo reducing activity of 11β HSD1, as shown in FIG. 6. Using the same computational algorithms that correctly predicted the competitive mode of inhibitory activity for neomenthol, and the lack thereof for isomenthol, molecules were assembled in silico and evaluated for their computed physicochemical characteristics relevant for the desired inhibition of 11β HSD activity. Originating from the lead compounds (FIG. 6), the computational analysis converged on several optimized structures that contained combinations of physicochemical and steric elements prerequisite for 11β HSD inhibition. These structures are identified in FIGS. 7-10. FIG. 7 details for neomenthol the findings obtained with this approach. FIG. 8 details the findings for a representative compound in which, among other modifications, a structure equivalent to the B ring of cortisol has been deleted. FIG. 9 details the findings for a representative compound in which, among other modifications, a ring has been added to the structure equivalent to the D ring of cortisol. FIG. 10 details the findings for a representative compound in which, among other modifications, a structure equivalent to the D ring of cortisol has been deleted. As originally proposed for neomenthol (FIG. 11), these structures are sufficiently isosteric and isoelectronic with cortisol to displace it from its plasma binding proteins, in this way increasing the bioavailable, free cortisol in a living system, e.g. after topical administration to skin only in skin blood vessels.

T1 sequence (P16232 whole entry): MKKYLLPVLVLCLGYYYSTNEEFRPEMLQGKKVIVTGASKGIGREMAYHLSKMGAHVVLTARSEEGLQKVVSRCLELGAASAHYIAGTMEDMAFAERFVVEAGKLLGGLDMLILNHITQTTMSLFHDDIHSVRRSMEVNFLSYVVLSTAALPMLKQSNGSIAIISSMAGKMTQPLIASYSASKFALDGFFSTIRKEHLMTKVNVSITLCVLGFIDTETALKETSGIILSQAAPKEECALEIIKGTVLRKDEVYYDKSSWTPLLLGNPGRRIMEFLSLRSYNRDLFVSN

| Structure (SMILES) | inhibition of the enzyme | Ki [µM] | mode of inhibition |
| --- | --- | --- | --- |
| CC(C)[C@H]1CC[C@@H](C)C[C@@H]1O [isomenthol, (1S, 2R, 5R)-isomenthol] | inhibited the enzyme | 71 | non-competitive |
| CC(C)[C@@H]1CC[C@@H](C)C[C@@H]1O [neomenthol, (1S, 2S, 5R)-neomenthol] | inhibited the enzyme | 35 | competitive |
